Measurements taken from publication PMC12263422, “Cryo-EM structure of the human THIK-1 K2P K^+ channel reveals a lower Y gate regulated by lipids and anesthetics” (Nature Structural & Molecular Biology, 2025).
Where “and” joins values, the source holds several entries; their conditions need not be identical. Identical values can stand only once. Like-named read-outs stand apart in the source and are kept apart here.

Columns and labels:
[1] = target: T1, R87D THIK-1 single channels (Homo sapiens, UniProt Q9HB14, R87D); experiment: Single-channel excised patch recordings of R87D THIK-1 at -100 mV with halothane; assay type: cell-based
T1 construct: expressed in transfected cells; host or cells: Xenopus oocytes (mRNA injection)
T1 sequence (Q9HB14 whole entry R87D): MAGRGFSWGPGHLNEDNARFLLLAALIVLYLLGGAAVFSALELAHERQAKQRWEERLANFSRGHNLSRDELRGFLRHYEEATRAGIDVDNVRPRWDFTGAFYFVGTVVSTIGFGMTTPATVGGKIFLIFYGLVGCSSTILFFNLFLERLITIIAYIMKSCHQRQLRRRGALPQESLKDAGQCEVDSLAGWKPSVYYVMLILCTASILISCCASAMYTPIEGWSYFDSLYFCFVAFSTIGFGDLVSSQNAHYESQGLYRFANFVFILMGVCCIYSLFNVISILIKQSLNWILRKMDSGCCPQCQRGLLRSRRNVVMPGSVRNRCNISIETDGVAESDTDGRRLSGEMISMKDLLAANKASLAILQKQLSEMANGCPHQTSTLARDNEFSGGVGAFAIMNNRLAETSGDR
Method: Two-electrode voltage–clamp (TEVC) studies were performed in Xenopus oocytes. All animal use conformed to the Guide for the Care and Use of Laboratory Animals (NIH Publication 85–23), and all experiments using Xenopus toads were approved by the local ethics panels. Oocytes were stored at 17 °C in ND96 recording solution composed of (in mM): 96 NaCl, 2 KCl, 1.8 CaCl2, 1 MgCl2, 5 HEPES (pH 7.5 adjusted with NaOH and HCl), supplemented with Na-pyruvate (275 mg L^–1), theophylline (90 mg L^–1) and gentamicin (50 mg L^–1). Oocytes were injected with 1 ng mRNA for WT or mutant channels, and were incubated for 24–48 h at 17 °C. Two-electrode voltage clamp recordings were then performed as previously described[42],[43]. […] Currents were recorded with an EPC10 amplifier (HEKA Electronics) and sampled at 10 kHz or higher, with filtering set to 3 kHz (–3 dB) or higher, as appropriate for sampling rate. For measurements of GPCR activation, whole-cell currents were recorded for THIK-1 in transiently transfected HEK-293 cells. […] Single-channel currents were recorded with an Axopatch 200B amplifier through a Digidata 1440A digitizer (Molecular Devices). Data were filtered at 2 kHz and recorded at a 200-kHz sampling rate with the program Clampex (Molecular Devices). […]

[2] = target: T2, THIK-1 R258A (Homo sapiens, UniProt Q9HB14, R258A); experiment: Inside-out excised patch recordings, oocytes, THIK-1 R258A mutant (lipid activation); assay type: cell-based; conditions: read-out: Linoleic acid EC50
T2 construct: expressed in transfected cells; host or cells: Xenopus oocytes (mRNA injection)
T2 sequence (Q9HB14 whole entry R258A): as the sequence (Q9HB14 whole entry R87D) above, with D87R, R258A counted along it
Text: Supplement 41594_2025_1497_MOESM2_ESM.xlsx, sheet "ExtData_Fig_S5f" | column: Linoleic acid EC50 (µM); R258A

| SMILES | decrease in activity ([1]; 0.4% halothane) [%] | decrease in activity ([1]; 1% halothane) [%] | EC50 ([2]; individual recordings) | EC50 ([2]; mean) [µM] |
| --- | --- | --- | --- | --- |
| FC(F)(F)C(Cl)Br (stereo not shown) [halothane] | 30 | 75 | – | – |
| CCCCC/C=C\C/C=C\CCCCCCCC(=O)O [linoleic acid] | – | – | 24.9 µM and 30.3 µM and 69.4 µM and 74.3 µM and 47.4 µM and 62.2 µM and 21.9 µM and 23.3 µM and 47.9 µM and 30 µM | 43.2 |
